Measured values from ChEMBL document CHEMBL3045799, “Effect of Candidatus Liberibacter asiaticus infection on susceptibility of Asian citrus psyllid, Diaphorina citri, to selected insecticides” (2011).

Key:
Type in all cases: functional
Diaphorina citri [1] = experiment: Selectivity ratio of LC50 for Diaphorina citri to LC50 for Diaphorina citri infected with Candidatus Liberibacter asiaticus
Diaphorina citri [2] = experiment: Insecticidal activity against Diaphorina citri assessed as mortality after 48 hr
Diaphorina citri [3] = experiment: Insecticidal activity against Diaphorina citri infected with Candidatus Liberibacter asiaticus assessed as mortality after 48 hr

| Structure (SMILES) | RatioLC50 (Diaphorina citri [1]) | LC50 (Diaphorina citri [2]) [mgAi/L] | LC50 (Diaphorina citri [3]) [mgAi/L] |
| --- | --- | --- | --- |
| CCO[C@@H]1[C@@H](OC)[C@H](C)O[C@@H](O[C@@H]2C[C@H]3CC[C@@H]4[C@@H](C=C5C(=O)[C@H](C)[C@@H](O[C@H]6CC[C@H](N(C)C)[C@@H](C)O6)CCC[C@H](CC)OC(=O)C[C@H]54)[C@@H]3C2)[C@@H]1OC.CCO[C@@H]1[C@@H](OC)[C@H](C)O[C@@H](O[C@H]2C[C@H]3[C@@H]4C=C5C(=O)[C@H](C)[C@@H](O[C@H]6CC[C@H](N(C)C)[C@@H](C)O6)CCC[C@H](CC)OC(=O)C[C@H]5[C@@H]4C=C(C)[C@@H]3C2)[C@@H]1OC | 1.2 | 0.48 | 0.2 |
| CCOP(=S)(OCC)Oc1nc(Cl)c(Cl)cc1Cl [CHLORPYRIFOS] | 2.8 | 0.78 | 0.28 |
| CC1(C)C(C(=O)OC(C#N)c2cccc(Oc3ccccc3)c2)C1(C)C (configuration not stated) [FENPROPATHRIN] | 1.2 | 0.06 | 0.05 |
| O=[N+]([O-])/N=C1\NCCN1Cc1ccc(Cl)nc1 [IMIDACLOPRID] | 3.1 | 0.47 | 0.15 |
